The results in this text go back to PubChem BioAssay (NCI).

“And” between values parts separate entries of the source, which are not always exact repeats. Identical values can stand only once.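 Briefly, cells in 96-well plates were exposed to five compound concentrations for 48 h, and endpoints were estimated by linear interpolation. GI50 is the concentration that inhibits growth by half. TGI is the concentration that stops growth completely.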

Test systems include HCT-15 colon; K-562 leukemia; COLO 205 colon; OVCAR-8 ovarian; HCC-2998 colon; HCT-116 colon; HOP-92 NSCLC; TK-10 renal; UACC-257 melanoma; SNB-75 CNS.
Common to all, as to assay: growth of human tumour cells (NCI), 48 h

As to `O=C1CC(NC(=O)C(F)(F)F)c2c1csc2Br` (configuration not stated), the TGI in the experiment on HCT-15 colon, in the experiment with K-562 leukemia, in the experiment with COLO 205 colon, in the experiment on OVCAR-8 ovarian, in the experiment on HCC-2998 colon and in the experiment on HCT-116 colon was more than 100 µM throughout. Moreover, the TGI with HOP-92 NSCLC, in the experiment on TK-10 renal and with UACC-257 melanoma was more than 100 µM in each case.
For `COc1cc(OC)c(/C=C/S(=O)(=O)Cc2cnc(OC)c(N)c2)c(OC)c1`, the GI50 was less than 0.019 µM in the experiment with HCT-15 colon; less than 0.013 µM in the experiment with K-562 leukemia; less than 0.0169 µM in the experiment with COLO 205 colon; less than 0.024 µM in the experiment with OVCAR-8 ovarian; less than 0.0333 µM in the experiment with HCC-2998 colon; less than 0.0209 µM in the experiment on HCT-116 colon. Further, the figures for the GI50 in the experiment on TK-10 renal and in the experiment with UACC-257 melanoma were more than 100 µM and more than 62 µM, respectively. Also, the TGI in the experiment on HCT-15 colon was more than 100 µM; with K-562 leukemia it was more than 100 µM; with COLO 205 colon, less than 0.0322 µM; with OVCAR-8 ovarian it was more than 100 µM; in the experiment on HCC-2998 colon, more than 100 µM; in the experiment on HCT-116 colon it was more than 100 µM. For the same compound, the TGI with TK-10 renal and in the experiment on UACC-257 melanoma was more than 100 µM throughout.
Regarding `COc1ccccc1N1C(=O)/C(=C/c2ccc(N(CCC#N)CCC#N)cc2C)N=C1c1cc([N+](=O)[O-])ccc1Cl`, the TGI in the experiment with HCT-15 colon, with K-562 leukemia, in the experiment on COLO 205 colon, in the experiment on OVCAR-8 ovarian, in the experiment with HCC-2998 colon and in the experiment with HCT-116 colon was more than 100 µM each time. The TGI in the experiment with TK-10 renal, in the experiment on SNB-75 CNS and with UACC-257 melanoma was more than 100 µM in each case.
For the compound `CN1CCN(CCCN)CC1`, the TGI in the experiment on HCT-15 colon, in the experiment on K-562 leukemia, with COLO 205 colon, in the experiment on OVCAR-8 ovarian, in the experiment with HCT-116 colon and with TK-10 renal was more than 100 µM throughout. Further, the TGI in the experiment with SNB-75 CNS and with UACC-257 melanoma was more than 100 µM each time.
Consider `NOCC(=O)O`, for which the GI50 with HCT-15 colon is more than 100 µM; in the experiment with K-562 leukemia, more than 100 µM; in the experiment with COLO 205 colon, more than 100 µM; with OVCAR-8 ovarian, more than 100 µM; in the experiment on HCC-2998 colon it was more than 100 µM; with HCT-116 colon, 66.8 µM. Besides, the GI50 in the experiment with TK-10 renal, with SNB-75 CNS and with UACC-257 melanoma was more than 100 µM throughout. Moreover, the TGI with HCT-15 colon, with K-562 leukemia, in the experiment with COLO 205 colon, with OVCAR-8 ovarian, in the experiment with HCC-2998 colon and in the experiment on HCT-116 colon was more than 100 µM in each case. The TGI with TK-10 renal, with SNB-75 CNS and with UACC-257 melanoma was more than 100 µM each time.
For `COc1ccc([N+]2=NC(c3ccc([N+](=O)[O-])cc3)=NN(c3ccccc3)C2)cc1`, the TGI in the experiment on HCT-15 colon is more than 100 µM; in the experiment with K-562 leukemia, 97.3 µM and > 100 µM; with COLO 205 colon, more than 100 µM; in the experiment on OVCAR-8 ovarian, more than 100 µM; in the experiment on HCC-2998 colon, more than 100 µM; in the experiment with HCT-116 colon it was more than 100 µM. Besides, the TGI with TK-10 renal and in the experiment on UACC-257 melanoma was more than 100 µM each time.
Turning to `CN(C)C=Nc1cccc2nsnc12`, the TGI with HCT-15 colon, in the experiment on K-562 leukemia, in the experiment with COLO 205 colon, in the experiment with OVCAR-8 ovarian, in the experiment with HCT-116 colon and with HOP-92 NSCLC was more than 100 µM throughout. The TGI with TK-10 renal, in the experiment on SNB-75 CNS and in the experiment on UACC-257 melanoma was more than 100 µM in each case.
In the case of `Cc1c(NC(=O)C(C)(C)Br)c(=O)oc2c(C)c3occc(=O)c3cc12`, the TGI with HCT-15 colon, in the experiment with K-562 leukemia, in the experiment with COLO 205 colon, in the experiment on OVCAR-8 ovarian, in the experiment on HCC-2998 colon and in the experiment on HCT-116 colon was more than 100 µM throughout. In addition, the TGI with TK-10 renal, in the experiment on SNB-75 CNS and with UACC-257 melanoma was more than 100 µM each time.
Consider `Cc1cc(Cl)ccc1NC(=O)CCCC(=O)C1CCCC1=O` (configuration not stated), for which the TGI in the experiment with HCT-15 colon, in the experiment on K-562 leukemia, with COLO 205 colon, in the experiment on OVCAR-8 ovarian, in the experiment with HCC-2998 colon and in the experiment on HCT-116 colon was more than 100 µM in each case. In addition, the TGI in the experiment on TK-10 renal and with UACC-257 melanoma was more than 100 µM each time.
Take `CC12OC(c3ccccc3)=CC(c3ccc(Cl)cc3)=C1C(c1ccccc1)=CC2=O` (configuration not stated): the GI50 in the experiment with HCT-15 colon is 26.3 µM; in the experiment with K-562 leukemia, 28.9 µM; with COLO 205 colon it was 64.9 µM; with OVCAR-8 ovarian, more than 100 µM; in the experiment on HCC-2998 colon it was 75.2 µM; in the experiment on HCT-116 colon, 46.1 µM. In addition, the GI50 in the experiment with TK-10 renal is more than 100 µM; with SNB-75 CNS, 33.4 µM; in the experiment with UACC-257 melanoma, 49.3 µM. Moreover, the TGI with HCT-15 colon, with K-562 leukemia, with COLO 205 colon, with OVCAR-8 ovarian, in the experiment on HCC-2998 colon and with HCT-116 colon was more than 100 µM each time. Further, the TGI with TK-10 renal, in the experiment with SNB-75 CNS and with UACC-257 melanoma was more than 100 µM throughout.
Take `O=[N+]([O-])c1cccc(C2N3CCCCC3[C@@H]3c4[nH]c5ccccc5c4CCN23)c1` (some centres not stated): the TGI was 23.3 µM in the experiment with HCT-15 colon; 19.6 µM in the experiment with K-562 leukemia; 32.8 µM in the experiment on COLO 205 colon; more than 100 µM with OVCAR-8 ovarian; 36.2 µM in the experiment on HOP-92 NSCLC; 35.4 µM in the experiment on TK-10 renal. The TGI in the experiment on UACC-257 melanoma turned out to be 27 µM.
As for `CCOC(=O)c1cc(C#N)c(=O)n(/N=C(\C)c2ccncc2)c1O`, the GI50 with HCT-15 colon, in the experiment with K-562 leukemia, with COLO 205 colon, in the experiment with OVCAR-8 ovarian, with HCC-2998 colon and in the experiment with HCT-116 colon was more than 100 µM throughout. Besides, the GI50 in the experiment with HOP-92 NSCLC, in the experiment with TK-10 renal and in the experiment on UACC-257 melanoma was more than 100 µM in each case. In addition, the TGI in the experiment with HCT-15 colon, with K-562 leukemia, in the experiment with COLO 205 colon, in the experiment with OVCAR-8 ovarian, in the experiment with HCC-2998 colon and in the experiment on HCT-116 colon was more than 100 µM each time. The TGI in the experiment on HOP-92 NSCLC, in the experiment with TK-10 renal and in the experiment on UACC-257 melanoma was more than 100 µM throughout.
